What was measured:
Aurora kinase A = molecular target: T1, Aurora kinase A (Homo sapiens, UniProt O14965); assay: Inhibition of Aurora A (unknown origin) using STK S2 as substrate after 40 mins by HTRF assay
T1 sequence (O14965 whole entry): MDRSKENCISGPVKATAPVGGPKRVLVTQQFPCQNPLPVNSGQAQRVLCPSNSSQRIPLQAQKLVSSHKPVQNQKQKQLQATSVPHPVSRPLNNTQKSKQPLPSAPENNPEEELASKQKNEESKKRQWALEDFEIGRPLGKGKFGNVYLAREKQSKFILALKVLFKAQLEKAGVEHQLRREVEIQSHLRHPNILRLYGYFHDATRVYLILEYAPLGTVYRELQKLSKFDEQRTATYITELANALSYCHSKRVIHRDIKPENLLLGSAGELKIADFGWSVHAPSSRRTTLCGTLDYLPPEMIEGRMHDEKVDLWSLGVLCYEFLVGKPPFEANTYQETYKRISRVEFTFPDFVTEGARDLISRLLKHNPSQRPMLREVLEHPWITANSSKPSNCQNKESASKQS

Aurora kinase B = Aurora kinase B (Homo sapiens, UniProt Q96GD4); assay: Inhibition of Aurora B (unknown origin) using STK S2 as substrate after 30 mins by HTRF assay
Sequence of Aurora kinase B (Q96GD4 whole entry): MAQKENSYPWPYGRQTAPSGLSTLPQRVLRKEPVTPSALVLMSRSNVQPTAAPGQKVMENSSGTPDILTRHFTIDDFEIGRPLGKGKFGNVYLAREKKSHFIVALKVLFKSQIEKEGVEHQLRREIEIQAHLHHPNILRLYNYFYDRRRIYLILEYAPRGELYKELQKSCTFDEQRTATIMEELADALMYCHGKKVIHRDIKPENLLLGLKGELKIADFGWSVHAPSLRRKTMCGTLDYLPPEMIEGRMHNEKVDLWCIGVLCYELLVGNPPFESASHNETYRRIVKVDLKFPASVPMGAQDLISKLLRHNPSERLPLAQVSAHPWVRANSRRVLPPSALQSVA

[1] = molecular target: Vascular endothelial growth factor receptor 2 (Homo sapiens, UniProt P35968); assay: biochemical; format: cell-based, Sf21
Sequence of Vascular endothelial growth factor receptor 2 (P35968 whole entry): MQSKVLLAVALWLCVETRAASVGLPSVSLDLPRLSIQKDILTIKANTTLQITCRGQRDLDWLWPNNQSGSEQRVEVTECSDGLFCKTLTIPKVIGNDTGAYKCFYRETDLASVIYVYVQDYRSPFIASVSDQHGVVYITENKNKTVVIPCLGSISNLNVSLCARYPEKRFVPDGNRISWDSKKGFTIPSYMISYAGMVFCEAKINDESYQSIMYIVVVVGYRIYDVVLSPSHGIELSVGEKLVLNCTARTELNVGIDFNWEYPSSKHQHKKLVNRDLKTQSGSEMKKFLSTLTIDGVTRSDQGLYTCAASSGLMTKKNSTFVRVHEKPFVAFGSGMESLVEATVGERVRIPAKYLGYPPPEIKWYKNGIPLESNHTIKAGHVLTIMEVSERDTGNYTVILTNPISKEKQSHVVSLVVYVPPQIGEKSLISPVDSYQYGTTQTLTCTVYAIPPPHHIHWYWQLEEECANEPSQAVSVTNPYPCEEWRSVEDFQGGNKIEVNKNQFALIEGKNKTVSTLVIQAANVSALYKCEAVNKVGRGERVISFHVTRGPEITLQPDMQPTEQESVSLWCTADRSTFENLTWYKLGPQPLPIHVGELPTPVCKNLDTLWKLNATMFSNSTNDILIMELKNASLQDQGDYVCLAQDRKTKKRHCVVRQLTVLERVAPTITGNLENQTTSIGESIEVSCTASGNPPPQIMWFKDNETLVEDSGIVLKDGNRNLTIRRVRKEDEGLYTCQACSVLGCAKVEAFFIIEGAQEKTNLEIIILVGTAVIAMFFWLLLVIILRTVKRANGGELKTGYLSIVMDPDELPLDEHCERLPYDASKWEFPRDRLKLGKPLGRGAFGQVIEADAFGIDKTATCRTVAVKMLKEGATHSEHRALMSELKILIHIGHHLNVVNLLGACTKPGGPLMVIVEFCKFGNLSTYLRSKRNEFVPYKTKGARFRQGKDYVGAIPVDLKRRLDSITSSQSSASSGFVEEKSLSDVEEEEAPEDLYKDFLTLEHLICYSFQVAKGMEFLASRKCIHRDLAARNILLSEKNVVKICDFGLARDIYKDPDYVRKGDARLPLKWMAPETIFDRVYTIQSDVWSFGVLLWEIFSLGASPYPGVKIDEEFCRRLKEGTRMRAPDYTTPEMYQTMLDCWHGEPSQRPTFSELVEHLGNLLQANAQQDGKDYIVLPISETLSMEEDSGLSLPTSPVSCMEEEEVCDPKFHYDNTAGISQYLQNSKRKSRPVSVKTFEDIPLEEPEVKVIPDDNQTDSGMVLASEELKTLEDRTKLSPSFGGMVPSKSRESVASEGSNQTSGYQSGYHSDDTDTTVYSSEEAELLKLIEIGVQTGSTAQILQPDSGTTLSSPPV
Description: Inhibition of recombinant human N-terminal His6-tagged KDR (790 to end residues) expressed in baculovirus infected Sf21 insect cells after 60 mins by ELISA

SNU-5 [2] = assay: Antitumor activity against human SNU5 cells xenografted in nude mouse assessed as delay in tumor tumor growth at 30 mg/kg, po qd for 21 days relative to control; format: functional
Mus musculus [3] = assay: Toxicity in nude mouse xenografted with human SNU5 cells assessed as mortality at 30 mg/kg, po qd for 21 days; format: organism-based; settings: in vivo, 504 h
Mus musculus [4] = assay: Toxicity in nude mouse xenografted with human SNU5 cells assessed as body weight at 30 mg/kg, po qd for 21 days (reference value: 19.6 g); format: organism-based; settings: in vivo, 504 h
[5] = molecular target: Vascular endothelial growth factor receptor 1 (Homo sapiens) (UniProt P17948); assay: Inhibition of recombinant human VEGFR1 at 1000 nM after 60 mins by ELISA relative to control
Sequence of Vascular endothelial growth factor receptor 1 (Homo sapiens) (P17948 whole entry): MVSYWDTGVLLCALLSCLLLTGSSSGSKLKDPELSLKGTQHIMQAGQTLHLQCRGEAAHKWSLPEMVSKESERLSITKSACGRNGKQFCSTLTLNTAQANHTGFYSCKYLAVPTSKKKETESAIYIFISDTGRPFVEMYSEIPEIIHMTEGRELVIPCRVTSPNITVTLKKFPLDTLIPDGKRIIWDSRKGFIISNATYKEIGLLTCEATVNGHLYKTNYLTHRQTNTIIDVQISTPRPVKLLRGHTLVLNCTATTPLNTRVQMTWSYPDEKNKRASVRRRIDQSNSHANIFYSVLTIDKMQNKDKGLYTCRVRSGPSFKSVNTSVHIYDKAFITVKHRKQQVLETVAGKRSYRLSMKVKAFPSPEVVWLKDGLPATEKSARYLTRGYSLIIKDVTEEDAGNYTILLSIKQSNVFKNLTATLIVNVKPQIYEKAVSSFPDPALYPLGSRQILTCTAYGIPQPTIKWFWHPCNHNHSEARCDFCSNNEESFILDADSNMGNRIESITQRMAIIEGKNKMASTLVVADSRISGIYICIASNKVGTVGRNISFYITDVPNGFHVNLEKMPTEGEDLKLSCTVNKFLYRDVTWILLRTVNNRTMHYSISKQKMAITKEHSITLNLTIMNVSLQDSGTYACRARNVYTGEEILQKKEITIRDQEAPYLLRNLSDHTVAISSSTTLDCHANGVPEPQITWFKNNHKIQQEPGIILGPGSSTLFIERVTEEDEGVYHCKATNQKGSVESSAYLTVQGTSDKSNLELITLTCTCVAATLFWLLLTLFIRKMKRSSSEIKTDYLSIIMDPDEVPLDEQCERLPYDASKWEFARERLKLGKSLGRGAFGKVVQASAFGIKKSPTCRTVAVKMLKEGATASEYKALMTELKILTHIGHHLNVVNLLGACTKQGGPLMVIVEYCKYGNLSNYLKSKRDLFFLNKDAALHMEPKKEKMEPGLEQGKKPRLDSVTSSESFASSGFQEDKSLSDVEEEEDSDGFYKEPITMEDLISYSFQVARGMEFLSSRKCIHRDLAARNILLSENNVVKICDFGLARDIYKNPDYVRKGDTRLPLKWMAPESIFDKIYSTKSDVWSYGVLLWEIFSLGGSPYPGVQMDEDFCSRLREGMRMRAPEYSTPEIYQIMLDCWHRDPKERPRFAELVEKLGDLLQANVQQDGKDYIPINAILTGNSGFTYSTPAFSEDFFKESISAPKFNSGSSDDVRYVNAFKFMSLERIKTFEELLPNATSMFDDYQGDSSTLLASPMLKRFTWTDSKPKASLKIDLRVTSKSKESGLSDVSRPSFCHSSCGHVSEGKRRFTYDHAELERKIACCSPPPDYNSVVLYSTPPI

[6] = molecular target: Vascular endothelial growth factor receptor 1 (Homo sapiens) (UniProt P17948); assay: Inhibition of recombinant human VEGFR1 at 100 nM after 60 mins by ELISA relative to control
[7] = molecular target: Platelet-derived growth factor receptor beta (Homo sapiens) (UniProt P09619); assay: Inhibition of recombinant human PDGFRbeta at 1000 nM after 60 mins by ELISA relative to control
[8] = molecular target: Proto-oncogene tyrosine-protein kinase receptor Ret (Homo sapiens) (UniProt P07949); assay: Inhibition of recombinant human RET at 1000 nM after 60 mins by ELISA relative to control
[9] = molecular target: Platelet-derived growth factor receptor beta (Homo sapiens) (UniProt P09619); assay: Inhibition of recombinant human PDGFRbeta at 100 nM after 60 mins by ELISA relative to control
[10] = molecular target: Proto-oncogene tyrosine-protein kinase receptor Ret (Homo sapiens) (UniProt P07949); assay: Inhibition of recombinant human RET at 100 nM after 60 mins by ELISA relative to control
[11] = molecular target: Epidermal growth factor receptor (Homo sapiens) (UniProt P00533); assay: Inhibition of recombinant human EGFR at 100 nM after 60 mins by ELISA relative to control
[12] = molecular target: Receptor tyrosine-protein kinase erbB-2 (Homo sapiens) (UniProt P04626); assay: Inhibition of recombinant human Erbb2 at 1000 nM after 60 mins by ELISA relative to control
Sequence of Receptor tyrosine-protein kinase erbB-2 (Homo sapiens) (P04626 whole entry): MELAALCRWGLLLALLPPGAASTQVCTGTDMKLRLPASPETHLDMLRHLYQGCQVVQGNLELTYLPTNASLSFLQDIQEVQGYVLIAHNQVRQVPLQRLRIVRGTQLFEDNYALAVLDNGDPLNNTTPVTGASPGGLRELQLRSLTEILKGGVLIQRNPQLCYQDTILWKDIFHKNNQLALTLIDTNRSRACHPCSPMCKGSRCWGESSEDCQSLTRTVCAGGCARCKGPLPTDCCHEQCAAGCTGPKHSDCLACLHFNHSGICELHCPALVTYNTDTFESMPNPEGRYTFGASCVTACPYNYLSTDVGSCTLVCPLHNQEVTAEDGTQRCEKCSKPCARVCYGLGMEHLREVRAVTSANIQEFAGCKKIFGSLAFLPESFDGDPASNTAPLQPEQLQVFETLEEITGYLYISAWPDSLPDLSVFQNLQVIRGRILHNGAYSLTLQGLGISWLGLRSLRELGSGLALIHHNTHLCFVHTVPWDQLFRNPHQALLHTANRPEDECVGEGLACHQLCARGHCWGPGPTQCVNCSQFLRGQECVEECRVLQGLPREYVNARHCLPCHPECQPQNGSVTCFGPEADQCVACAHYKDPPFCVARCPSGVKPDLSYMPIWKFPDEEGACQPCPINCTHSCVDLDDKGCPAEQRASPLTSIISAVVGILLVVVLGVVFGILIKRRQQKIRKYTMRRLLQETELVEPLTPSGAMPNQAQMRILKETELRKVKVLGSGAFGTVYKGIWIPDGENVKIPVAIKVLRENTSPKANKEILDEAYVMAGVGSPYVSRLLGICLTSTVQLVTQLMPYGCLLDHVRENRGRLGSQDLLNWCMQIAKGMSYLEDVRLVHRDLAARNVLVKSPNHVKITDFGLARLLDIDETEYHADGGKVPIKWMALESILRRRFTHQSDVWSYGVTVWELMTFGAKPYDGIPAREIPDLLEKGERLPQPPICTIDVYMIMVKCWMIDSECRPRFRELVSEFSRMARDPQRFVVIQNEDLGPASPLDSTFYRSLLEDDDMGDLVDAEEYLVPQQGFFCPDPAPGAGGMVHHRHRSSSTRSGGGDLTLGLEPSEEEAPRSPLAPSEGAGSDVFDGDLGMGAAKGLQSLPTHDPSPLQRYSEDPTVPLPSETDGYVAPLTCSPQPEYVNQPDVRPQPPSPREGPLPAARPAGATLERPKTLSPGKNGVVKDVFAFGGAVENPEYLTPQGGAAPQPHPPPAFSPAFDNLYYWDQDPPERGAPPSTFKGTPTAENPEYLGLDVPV

[13] = molecular target: Receptor tyrosine-protein kinase erbB-2 (Homo sapiens) (UniProt P04626); assay: Inhibition of recombinant human Erbb2 at 100 nM after 60 mins by ELISA relative to control
[14] = molecular target: Receptor tyrosine-protein kinase erbB-4 (Homo sapiens) (UniProt Q15303); assay: Inhibition of recombinant human Erbb4 at 1000 nM after 60 mins by ELISA relative to control
[15] = molecular target: Receptor tyrosine-protein kinase erbB-4 (Homo sapiens) (UniProt Q15303); assay: Inhibition of recombinant human Erbb4 at 100 nM after 60 mins by ELISA relative to control
[16] = molecular target: Proto-oncogene tyrosine-protein kinase Src (Homo sapiens) (UniProt P12931); assay: Inhibition of recombinant human c-SRC at 100 nM after 60 mins by ELISA relative to control
Sequence of Proto-oncogene tyrosine-protein kinase Src (Homo sapiens) (P12931 2-536 limits assumed): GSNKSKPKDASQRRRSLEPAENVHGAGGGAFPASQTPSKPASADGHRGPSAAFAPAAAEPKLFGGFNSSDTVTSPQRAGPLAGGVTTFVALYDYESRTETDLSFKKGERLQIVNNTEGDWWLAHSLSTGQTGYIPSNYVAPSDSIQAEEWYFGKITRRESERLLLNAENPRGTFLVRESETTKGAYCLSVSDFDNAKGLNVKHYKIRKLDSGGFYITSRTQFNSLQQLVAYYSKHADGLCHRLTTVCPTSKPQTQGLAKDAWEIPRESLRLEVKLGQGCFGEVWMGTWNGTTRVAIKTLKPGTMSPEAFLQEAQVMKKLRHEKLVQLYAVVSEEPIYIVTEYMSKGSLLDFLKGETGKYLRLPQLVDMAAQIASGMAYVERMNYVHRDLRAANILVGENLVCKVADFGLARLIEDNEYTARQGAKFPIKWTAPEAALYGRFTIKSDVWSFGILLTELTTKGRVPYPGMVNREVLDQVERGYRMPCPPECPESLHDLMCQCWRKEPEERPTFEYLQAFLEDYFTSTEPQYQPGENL

[17] = molecular target: Tyrosine-protein kinase ABL1 (Homo sapiens) (UniProt P00519); assay: Inhibition of recombinant human ABL at 100 nM after 60 mins by ELISA relative to control
[18] = molecular target: Insulin-like growth factor 1 receptor (Homo sapiens) (UniProt P08069); assay: Inhibition of recombinant human IGF1R at 1000 nM after 60 mins by ELISA relative to control
[19] = molecular target: Ephrin type-A receptor 2 (Homo sapiens) (UniProt P29317); assay: Inhibition of recombinant human EPHA2 at 100 nM after 60 mins by ELISA relative to control
[20] = molecular target: Insulin-like growth factor 1 receptor (Homo sapiens) (UniProt P08069); assay: Inhibition of recombinant human IGF1R at 100 nM after 60 mins by ELISA relative to control
SNU-5 [21] = assay: Antiproliferative activity against human SNU5 cells after 72 hrs by CCK8 assay; format: functional, cell-based; settings: SNU-5, 72 h
MKN-45 [22] = assay: Antiproliferative activity against human MKN45 cells after 72 hrs by sulforhodamine B assay; format: functional, cell-based; settings: MKN-45, 72 h
MKN-74 [23] = assay: Antiproliferative activity against human MKN74 cells after 72 hrs by sulforhodamine B assay; format: functional, cell-based; settings: MKN-74, 72 h
SGC-7901 [24] = assay: Antiproliferative activity against human SGC7901 cells after 72 hrs by sulforhodamine B assay; format: functional, cell-based; settings: SGC-7901, 72 h
BGC-823 = assay: Antiproliferative activity against human BGC823 cells after 72 hrs by sulforhodamine B assay; format: functional, cell-based; settings: BGC-823, 72 h
MKN-74 [25] = assay: Cell cycle arrest in human MKN74 cells assessed as accumulation at G2/M phase after 24 hrs by propidium iodide staining based flow cytometry; format: functional
MKN-45 [26] = assay: Cell cycle arrest in human MKN45 cells assessed as accumulation at G2/M phase after 24 hrs by propidium iodide staining based flow cytometry; format: functional
SGC-7901 [27] = assay: Cell cycle arrest in human SGC7901 cells assessed as accumulation at G2/M phase after 24 hrs by propidium iodide staining based flow cytometry; format: functional
SNU-5 [28] = assay: Cell cycle arrest in human SNU5 cells assessed as accumulation at G2/M phase after 24 hrs by propidium iodide staining based flow cytometry; format: functional
Mus musculus [29] = assay: AUC (0 to t) in ICR mouse at 5 mg/kg, iv administered as single dose by LC-MS analysis; format: ADME, organism-based; settings: in vivo
[30] = Clearance in ICR mouse at 5 mg/kg, iv administered as single dose by LC-MS analysis; format: ADME, organism-based; settings: in vivo
[31] = MRT in ICR mouse at 5 mg/kg, iv administered as single dose by LC-MS analysis; format: ADME, organism-based; settings: in vivo
[32] = Volume of distribution at steady state in ICR mouse at 5 mg/kg, iv administered as single dose by LC-MS analysis; format: ADME, organism-based; settings: in vivo, read-out: Vdss
[33] = Terminal elimination half life in ICR mouse at 5 mg/kg, iv administered as single dose by LC-MS analysis; format: ADME, organism-based; settings: in vivo, read-out: beta t1/2 (converted)
Mus musculus [34] = assay: AUC (0 to t) in ICR mouse at 25 mg/kg, po administered as single dose by LC-MS analysis; format: ADME, organism-based; settings: in vivo
[35] = Cmax in ICR mouse at 25 mg/kg, po administered as single dose by LC-MS analysis; format: ADME, organism-based; design: dose 25 mg/kg, route oral; settings: in vivo
[36] = Tmax in ICR mouse at 25 mg/kg, po administered as single dose by LC-MS analysis; format: ADME, organism-based; settings: in vivo
[37] = Terminal elimination half life in ICR mouse at 25 mg/kg, po administered as single dose by LC-MS analysis; format: ADME, organism-based; settings: in vivo, read-out: beta t1/2 (converted)
[38] = Oral bioavailability in ICR mouse at 25 mg/kg administered as single dose by LC-MS analysis; format: ADME, organism-based; settings: in vivo
SNU-5 [39] = assay: Antitumor activity against human SNU5 cells xenografted in nude mouse assessed as delay in tumor growth at 20 mg/kg, po qd for 21 days relative to control; format: functional
Mus musculus [40] = assay: Toxicity in nude mouse xenografted with human SNU5 cells assessed as mortality at 20 mg/kg, po qd for 21 days; format: organism-based; settings: in vivo, 504 h
Mus musculus [41] = assay: Toxicity in nude mouse xenografted with human SNU5 cells assessed as body weight at 20 mg/kg, po qd for 21 days (reference value: 19.6 g); format: organism-based; settings: in vivo, 504 h
[42] = molecular target: Epidermal growth factor receptor (Homo sapiens) (UniProt P00533); settings: at 1000 nM
Description: Inhibition of recombinant human EGFR at 1000 nM after 60 mins by ELISA relative to control

[43] = molecular target: Proto-oncogene tyrosine-protein kinase Src (Homo sapiens) (UniProt P12931); settings: at 1000 nM
Description: Inhibition of recombinant human c-SRC at 1000 nM after 60 mins by ELISA relative to control

[44] = molecular target: Tyrosine-protein kinase ABL1 (Homo sapiens) (UniProt P00519); settings: at 1000 nM
Description: Inhibition of recombinant human ABL at 1000 nM after 60 mins by ELISA relative to control

With `CSc1ncc2c(n1)Nc1n[nH]c(C)c1N=C2c1ccccc1Cl` the IC50 (Aurora kinase A) was 94 nM, the IC50 (Aurora kinase B) was 278 nM and the IC50 [1] was 83.7 nM.
Work on `CSc1ncc2c(n1)Nc1n[nH]c(C)c1N=C2c1cccc(Cl)c1` yielded an IC50 (Aurora kinase A) of 102 nM, an IC50 (Aurora kinase B) of 1000 nM and an IC50 [1] of 141 nM.
`CSc1ncc2c(n1)Nc1n[nH]c(C)c1N=C2c1ccccc1C` gave an IC50 (Aurora kinase A) of 75 nM, an IC50 (Aurora kinase B) of 610 nM and an IC50 [1] of 110 nM.
For `COc1cc2nccc(Oc3ccc(NC(=O)C4(C(=O)Nc5ccc(F)cc5)CC4)cc3)c2cc1OC` [CABOZANTINIB], the T/C (SNU-5 [2]) was 8.41%, the Activity (Mus musculus [3]) was “Non-Toxic” and the Activity (Mus musculus [4]) was 19.9 g.
Compound `CSc1ncc2c(n1)Nc1n[nH]c(C)c1N=C2c1ccc(C(F)(F)F)cc1` has an IC50 (Aurora kinase A) of 423 nM, an IC50 (Aurora kinase B) of 854 nM and an IC50 [1] of 209 nM.
With `CNc1ncc2c(n1)Nc1n[nH]c(C)c1N=C2c1ccc(C)cc1` the IC50 (Aurora kinase A) was 397 nM, the IC50 (Aurora kinase B) was 352 nM and the IC50 [1] was 199 nM.
Compound `CSc1ncc2c(n1)Nc1n[nH]c(C)c1N=C2c1ccc(Cl)cc1` has an IC50 (Aurora kinase A) of 183 nM, an IC50 (Aurora kinase B) of 1620 nM and an IC50 [1] of 318 nM.
For `Cc1ccc(C2=Nc3c(n[nH]c3C)Nc3nc(N4CCOCC4)ncc32)cc1`, the IC50 (Aurora kinase A) was 46.2 nM, the IC50 (Aurora kinase B) was 37.6 nM and the IC50 [1] was 21.6 nM. It also gave an inhibition [5] of 28.1%, an inhibition [6] of 0% and an inhibition [7] of 41%. The inhibition [8] was 68.7%, the inhibition [9] was 13.2% and the inhibition [10] was 28.7%. It also gave an inhibition [11] of 24.5%, an inhibition [12] of 0% and an inhibition [13] of 3%. It also gave an inhibition [14] of 17.5%, an inhibition [15] of 12% and an inhibition [16] of 0%. It also gave an inhibition [17] of 0%, an inhibition [18] of 26.8% and an inhibition [19] of 3.9%. For the same compound, the inhibition [20] was 1.4%, the IC50 (SNU-5 [21]) was 1270 nM and the IC50 (MKN-45 [22]) was 1260 nM. The IC50 (MKN-74 [23]) was 3140 nM, the IC50 (SGC-7901 [24]) was greater than 10000 nM and the IC50 (BGC-823) was greater than 10000 nM. For the same compound, the Activity (MKN-74 [25]) was “Dose-dependent effect”, the Activity (MKN-45 [26]) was “Dose-dependent effect” and the Activity (SGC-7901 [27]) was “Dose-dependent effect”. For the same compound, the Activity (SNU-5 [28]) was “Dose-dependent effect”, the AUCt (Mus musculus [29]) was 4724 ng·mL·h and the clearance [30] was 17.3 mL/min/kg. It also gave an MRT [31] of 1.93 h, a Vd [32] of 2.01 L/kg and a half-life [33] of 1.53 h. For the same compound, the AUCt (Mus musculus [34]) was 15335 ng·mL·h, the Cmax [35] was 2780 ng/mL and the Tmax [36] was 0.5 h. For the same compound, the half-life [37] was 3.27 h, the bioavailability [38] was 63.8% and the T/C (SNU-5 [39]) was 61.63%. The Activity (Mus musculus [40]) was “Non-Toxic”, the Activity (Mus musculus [41]) was 18.4 g and the inhibition [42] was 37.4%. It also gave an inhibition [43] of 32% and an inhibition [44] of 0%.
With `COc1cccc2c1C(=O)c1c(O)c3c(c(O)c1C2=O)C[C@@](O)(C(=O)CO)C[C@@H]3O[C@H]1C[C@H](N)[C@H](O)[C@H](C)O1` [DOXORUBICIN] the IC50 (SNU-5 [21]) was 237 nM, the IC50 (MKN-45 [22]) was 127 nM and the IC50 (MKN-74 [23]) was 204 nM. It also gave an IC50 (SGC-7901 [24]) of 130 nM and an IC50 (BGC-823) of 405 nM.
For `Cc1ccc(C2=Nc3c(n[nH]c3C)Nc3nc(N4CCN(C)CC4)ncc32)cc1`, the IC50 (Aurora kinase A) was 108 nM, the IC50 (Aurora kinase B) was 86 nM and the IC50 [1] was 24.7 nM.
With `CN(C)C/C=C/C(=O)Nc1cc2c(Nc3ccc(F)c(Cl)c3)ncnc2cc1O[C@H]1CCOC1` the inhibition [12] was 97.6%.

From ChEMBL document CHEMBL4265936, “Pyrazolo[4,3-b]pyrimido[4,5-e][1,4]diazepine derivatives as new multi-targeted inhibitors of Aurora A/B and KDR” (Eur J Med Chem, 2018)
